Target: T1, TXA2 synthetase (Homo sapiens, UniProt P24557)
T1 construct: human platelet microsomes (HPM); from tissue; host or cells: human platelet microsomes
T1 sequence (P24557 1-533): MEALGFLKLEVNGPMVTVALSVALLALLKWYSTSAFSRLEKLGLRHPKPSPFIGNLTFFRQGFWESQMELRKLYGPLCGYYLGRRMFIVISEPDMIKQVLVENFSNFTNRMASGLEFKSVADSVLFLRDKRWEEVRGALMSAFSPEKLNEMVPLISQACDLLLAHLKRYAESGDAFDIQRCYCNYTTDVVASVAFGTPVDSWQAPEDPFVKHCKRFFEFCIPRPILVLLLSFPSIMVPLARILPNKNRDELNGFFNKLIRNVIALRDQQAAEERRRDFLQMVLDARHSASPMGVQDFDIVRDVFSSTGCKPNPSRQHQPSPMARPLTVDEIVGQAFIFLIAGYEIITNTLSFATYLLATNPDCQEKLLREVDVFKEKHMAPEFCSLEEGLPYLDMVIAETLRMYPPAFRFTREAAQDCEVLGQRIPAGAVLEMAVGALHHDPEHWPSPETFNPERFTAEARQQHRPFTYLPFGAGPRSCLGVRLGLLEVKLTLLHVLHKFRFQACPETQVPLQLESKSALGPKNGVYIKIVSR
Experiment: TXA2 inhibition test: PGH2 mixed with human platelet microsomes (HPM), TXA2 measured by response of superfused rabbit aortic strips
Type: biochemical
Details: rabbit aorta response; for effectiveness in inhibiting TXA2 formation (in words): PGH2 + human platelet microsomes
Procedure: The compounds of the present invention were tested for TXA2 inhibition as follows:
Rabbit aortic strips were superfused in series with Krebs solution. Thromboxane A2 (TXA2) was generated by mixing prostaglandin H2 (PGH2) with human platelet microsomes (HPM).
Potential inhibitors were tested by comparing the response of the rabbit aorta to the amount of TXA2 produced by mixing PGH2 and HPM without the test compound in the reaction medium and then the amount of TXA2 produced when the test compound was added to the HPM 5 minutes before the HPM was mixed with PGH2. […] For a discussion of TXA2 synthetase inhibition testing see, e.g., R. Gorman, supra.

effectiveness in inhibiting TXA2 formation (in words)	IC50 (test compound added to HPM 5 minutes before mixing with PGH2, read-out: approximate ED50 (inhibition of TXA2 formation) (converted)) [nM]	Compound
most effective	–	2,3-Dihydro-7-(and 6-)(3-pyridinylmethyl)-1,4-benzodioxin-2-carboxylic acid, sodium salt
most effective	~369	COC(=O)C1Oc2ccc(Cc3cccnc3)cc2O1 (racemic) [Example 1, dl-4-(3-Pyridinylmethyl)-1,2-benzenediol, methyl glyoxylate acetal]

From patent US4501892A, “Pyridyl benzenediols” (The Upjohn Company, priority 1982, dated 1985)
